Results: ChEMBL document CHEMBL3046819, “Synthesis and antimicrobial activity of new pyridine derivatives-I” (2011)

Columns and labels:
Assay type in all cases: functional
Conditions in all cases: read-out: IZ
[1] = test system: Candida albicans; test: Antifungal activity against Candida albicans ATCC 10231 at 200 ug/ml by cup-plate method
[2] = test system: Pseudomonas aeruginosa; test: Antibacterial activity against Pseudomonas aeruginosa ATCC 9027 at 100 ug/ml by cup-plate method
[3] = test system: Staphylococcus aureus; test: Antibacterial activity against Staphylococcus aureus ATCC 9144 at 200 ug/ml by cup-plate method
[4] = test system: Staphylococcus aureus; test: Antibacterial activity against Staphylococcus aureus ATCC 9144 at 100 ug/ml by cup-plate method
[5] = test system: Escherichia coli; test: Antibacterial activity against Escherichia coli ATCC 25922 at 200 ug/ml by cup-plate method
[6] = test system: Bacillus subtilis; test: Antibacterial activity against Bacillus subtilis ATCC 6633 at 200 ug/ml by cup-plate method
[7] = test system: Candida albicans; test: Antifungal activity against Candida albicans ATCC 10231 at 100 ug/ml by cup-plate method
[8] = test system: Bacillus subtilis; test: Antibacterial activity against Bacillus subtilis ATCC 6633 at 100 ug/ml by cup-plate method
[9] = test system: Pseudomonas aeruginosa; test: Antibacterial activity against Pseudomonas aeruginosa ATCC 9027 at 200 ug/ml by cup-plate method
[10] = test system: Escherichia coli; test: Antibacterial activity against Escherichia coli ATCC 25922 at 100 ug/ml by cup-plate method

Structure (SMILES)	zone of inhibition at 200 µg/mL [1]	zone of inhibition at 100 µg/mL [2]	zone of inhibition at 200 µg/mL [3]	zone of inhibition at 100 µg/mL [4]	zone of inhibition at 200 µg/mL [5]	zone of inhibition at 200 µg/mL [6]	zone of inhibition at 100 µg/mL [7]	zone of inhibition at 100 µg/mL [8]	zone of inhibition at 200 µg/mL [9]	zone of inhibition at 100 µg/mL [10]
O=C(c1cccnc1Nc1nc2cc([N+](=O)[O-])ccc2s1)N1CCN(CCO)CC1	4 mm	7 mm	11 mm	6 mm	8 mm	8 mm	2 mm	8 mm	7 mm	4 mm
Cc1ccc2nc(Nc3ncccc3C(=O)N3CCN(CCO)CC3)sc2c1	5 mm	0 mm	3 mm	0 mm	6 mm	0 mm	2 mm	0 mm	0 mm	0 mm
Cc1ccc2nc(Nc3ncccc3C(=O)N3CCNC(Cl)C3Cl)sc2c1 (stereo not given)	5 mm	0 mm	4 mm	3 mm	3 mm	0 mm	2 mm	0 mm	0 mm	3 mm
O=C(c1cccnc1Nc1nc2c([N+](=O)[O-])cccc2s1)N1CCN(CCO)CC1	7 mm	8 mm	12 mm	8 mm	9 mm	9 mm	4 mm	8 mm	11 mm	5 mm
Cc1cccc2sc(Nc3ncccc3C(=O)N3CCN(CCO)CC3)nc12	0 mm	6 mm	5 mm	4 mm	7 mm	10 mm	0 mm	7 mm	7 mm	3 mm
O=C(c1cccnc1Nc1nc2ccc([N+](=O)[O-])cc2s1)N1CCN(CCO)CC1	2 mm	6 mm	9 mm	8 mm	5 mm	6 mm	0 mm	0 mm	8 mm	0 mm
